This is an account of results in ChEMBL document CHEMBL4400552, “Design, synthesis and biological evaluation of novel human monoamine oxidase B inhibitors based on a fragment in an X-ray crystal structure” (Bioorg Med Chem Lett, 2019).

Molecules are shown by their SMILES. Where only a bound is given, the exact number is not on record here.

The target in data set [1] is T1, Amine oxidase [flavin-containing] B (Homo sapiens, UniProt P27338).
T1 sequence (P27338 whole entry): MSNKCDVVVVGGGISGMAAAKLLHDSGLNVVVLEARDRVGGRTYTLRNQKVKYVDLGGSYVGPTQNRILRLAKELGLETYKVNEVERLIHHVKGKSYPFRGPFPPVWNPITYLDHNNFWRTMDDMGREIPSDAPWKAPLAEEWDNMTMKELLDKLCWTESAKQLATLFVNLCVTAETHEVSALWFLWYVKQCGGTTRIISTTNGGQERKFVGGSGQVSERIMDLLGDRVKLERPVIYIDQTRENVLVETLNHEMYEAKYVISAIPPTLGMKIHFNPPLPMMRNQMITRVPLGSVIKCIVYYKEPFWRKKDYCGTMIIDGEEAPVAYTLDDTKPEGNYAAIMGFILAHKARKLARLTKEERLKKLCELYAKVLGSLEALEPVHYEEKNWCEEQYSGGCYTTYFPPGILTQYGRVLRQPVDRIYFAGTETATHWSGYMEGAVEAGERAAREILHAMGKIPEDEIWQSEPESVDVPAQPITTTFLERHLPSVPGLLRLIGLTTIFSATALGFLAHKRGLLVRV
Nature of the data set: Inhibition of human recombinant MAO-B expressed in insect cells at 1 uM using p-tyramine as substrate preincubated for 30 mins followed by substrate addition measured for 15 mins by resorufin dye-based fluorescence assay relative to control. The note with it: 0.25 h; for inhibition at 1 µM: read-out: INH; for INH: 1 µM.

Data set [2] addresses T2, Amine oxidase [flavin-containing] A (Homo sapiens, UniProt P21397).
T2 sequence (P21397 whole entry): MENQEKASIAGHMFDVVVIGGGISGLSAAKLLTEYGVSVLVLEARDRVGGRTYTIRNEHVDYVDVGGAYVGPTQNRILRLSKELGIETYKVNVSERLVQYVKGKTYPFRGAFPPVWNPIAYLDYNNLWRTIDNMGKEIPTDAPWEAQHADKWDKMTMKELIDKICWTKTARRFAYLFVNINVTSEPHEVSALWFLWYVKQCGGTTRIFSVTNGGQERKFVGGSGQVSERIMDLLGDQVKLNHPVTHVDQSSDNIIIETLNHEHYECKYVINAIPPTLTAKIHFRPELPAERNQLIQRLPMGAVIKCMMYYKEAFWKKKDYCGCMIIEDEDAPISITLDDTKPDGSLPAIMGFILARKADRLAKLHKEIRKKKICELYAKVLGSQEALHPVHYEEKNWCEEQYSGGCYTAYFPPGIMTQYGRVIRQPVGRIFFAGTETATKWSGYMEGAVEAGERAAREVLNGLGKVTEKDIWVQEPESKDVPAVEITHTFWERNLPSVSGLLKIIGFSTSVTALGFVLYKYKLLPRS
Nature of the data set: Inhibition of human recombinant MAO-A expressed in insect cells using p-tyramine as substrate preincubated for 30 mins followed by substrate addition measured for 15 mins by resorufin dye-based fluorescence assay.

A further data set is filed under the species Homo sapiens. The data set is described as follows: Selectivity index, ratio of IC50 for human recombinant MAO-A expressed in insect cells to IC50 for human recombinant MAO-B expressed in insect cells.
In data set [3] the target is T1, Amine oxidase [flavin-containing] B. Nature of the data set: Inhibition of human recombinant MAO-B expressed in insect cells using p-tyramine as substrate preincubated for 30 mins followed by substrate addition measured for 15 mins by resorufin dye-based fluorescence assay. The class given is cell-based.

For `Cn1c(=O)[nH]c2ccc(OCCOc3ccc(Cl)cc3)cc21`, in data set [1], the inhibition at 1 µM was 9.94%.

As for `CC(C)=C1C(=O)Nc2ccc(OCc3ccc(F)cc3)cc21`, the INH result in data set [1] is reported as “Not Active”.

In general, IC50 refers to the concentration needed to halve the response being measured. With `CC(C)c1ccc(OCCOc2ccc3[nH]c(=O)n(C(C)C)c3c2)cc1`, the IC50 in data set [2] was over 500 µM; in data set [3], 66.7 µM. For the same compound, the Ratio IC50 in the data set listed under Homo sapiens is over 7.49. The inhibition at 1 µM in data set [1] is 14.1%.

For `O=C1Nc2ccc(OCc3ccc(F)cc3)cc2C1=O`, the IC50 in data set [2] was found to be 235 µM; in data set [3], 0.073 µM. Besides, in the data set filed under Homo sapiens, the Ratio IC50 worked out at 3210. Besides, in data set [1], the inhibition at 1 µM was 92.5%.

In the case of `Cn1c(=O)[nH]c2ccc(OCc3ccc(Cl)c(Cl)c3)cc21`, the IC50 in data set [2] was over 500 µM; in data set [3] it was 7.68 µM. Further, the Ratio IC50 in the data set listed under Homo sapiens is over 65. Moreover, the inhibition at 1 µM in data set [1] was found to be 32.4%.

As for `CC1(C)C(=O)Nc2ccc(OCc3ccc(F)cc3)cc21`, in data set [1], the INH result is “Not Active”.

As to `Cc1ccc(COc2ccc3c(c2)C(C)(C)C(=O)N3)cc1`, in data set [1], the INH result is recorded as “Not Active”.

Consider `CC(C)=C1C(=O)Nc2ccc(OCc3cccc(C)c3)cc21`, for which the INH entry in data set [1] was “Not Active”.

Take `CC1(C)C(=O)Nc2ccc(OCc3cccc(Cl)c3)cc21`: the figures for the IC50 in data set [2] and in data set [3] were over 500 µM and 279 µM, respectively. For the same compound, the Ratio IC50 in the data set filed under Homo sapiens is over 1.79. Further, in data set [1], the inhibition at 1 µM was found to be 21.1%.

In the case of `CC(C)=C1C(=O)Nc2ccc(OCCOc3ccccc3)cc21`, the INH entry in data set [1] was “Not Active”.

Take `Cn1c(=O)[nH]c2ccc(OCc3cccc(Cl)c3)cc21`: the inhibition at 1 µM in data set [1] turned out to be 8.89%.

For the compound `Cn1c(=O)[nH]c2ccc(OCCc3cccc(Cl)c3)cc21`, the inhibition at 1 µM in data set [1] is 13.7%.

Consider `CC1(C)C(=O)Nc2ccc(OCc3ccc(Cl)c(Cl)c3)cc21`, for which the IC50 in data set [2] was over 500 µM; in data set [3], 132 µM. Also, in the data set listed under Homo sapiens, the Ratio IC50 is over 3.78. For the same compound, in data set [1], the inhibition at 1 µM was 28.8%.

Take `CCn1c(=O)[nH]c2ccc(OCCCc3ccccc3)cc21`: the inhibition at 1 µM in data set [1] came to 4.56%.

`O=C1Nc2ccc(OCc3ccc(Cl)c(Cl)c3)cc2C1=O`: the IC50 in data set [2] worked out at 117 µM; in data set [3], 0.003 µM. Moreover, the Ratio IC50 in the data set listed under Homo sapiens is 38900. The inhibition at 1 µM in data set [1] came out at 95.7%.

Regarding `O=C1Nc2ccc(OCc3cccc(Cl)c3)cc2C1=O`, the IC50 was 311 µM in data set [2] and 0.046 µM in data set [3]. In the data set filed under Homo sapiens, the Ratio IC50 amounted to 6760. Besides, the inhibition at 1 µM in data set [1] was determined as 93%.

`O=C1Cc2cc(OCc3ccc(F)cc3)ccc2N1`: the IC50 in data set [2] was over 500 µM; in data set [3], 24.9 µM. The Ratio IC50 in the data set filed under Homo sapiens was over 20.1. The inhibition at 1 µM in data set [1] was found to be 19.6%.

Turning to `COc1ccc(OCCOc2ccc3[nH]c(=O)n(C(C)C)c3c2)cc1`, the inhibition at 1 µM in data set [1] turned out to be 15.5%.

As to `CC(C)n1c(=O)[nH]c2ccc(OCCOc3cccc(F)c3)cc21`, the inhibition at 1 µM in data set [1] stood at 12.9%.

For `CCn1c(=O)[nH]c2ccc(OCCOc3ccc(OC)cc3)cc21`, the inhibition at 1 µM in data set [1] turned out to be 13.9%.

With `Cn1c(=O)[nH]c2ccc(OCc3cccc(F)c3)cc21`, the inhibition at 1 µM in data set [1] turned out to be 5.36%.

For `Cn1c(=O)[nH]c2cc(OCCc3ccccc3)ccc21`, in data set [1], the INH result is on record as “Not Active”.

For `CC(C)n1c(=O)[nH]c2ccc(OCCOc3ccc(Cl)cc3)cc21`, the inhibition at 1 µM in data set [1] was 18.2%.

`CC(C)=C1C(=O)Nc2ccc(OCCc3ccccc3)cc21`: in data set [1], the INH result is given as “Not Active”.

On to `Cn1c(=O)[nH]c2ccc(OCCc3ccccc3)cc21`, for which, in data set [1], the INH result is on record as “Not Active”.

Take `CC1(C)C(=O)Nc2ccc(OCCc3ccccc3)cc21`: in data set [1], the INH result was “Not Active”.

As for `Cn1c(=O)[nH]c2ccc(OCc3ccc(Cl)cc3)cc21`, the IC50 is over 500 µM in data set [2] and 56.4 µM in data set [3]. In the data set filed under Homo sapiens, the Ratio IC50 is over 8.87. In data set [1], the inhibition at 1 µM was found to be 8.29%.

`Cc1ccc(COc2ccc3c(c2)C(C(C)C)C(=O)N3)cc1` (configuration not stated): the INH entry in data set [1] is “Not Active”.

`O=C1Cc2cc(OCc3ccc(Cl)c(Cl)c3)ccc2N1`: the figures for the IC50 in data set [2] and in data set [3] were over 500 µM and 17.2 µM, respectively. In the data set filed under Homo sapiens, the Ratio IC50 is over 29.1. Moreover, in data set [1], the inhibition at 1 µM came out at 12.4%.

Take `CCn1c(=O)[nH]c2ccc(OCc3cccc(C(F)(F)F)c3)cc21`: the inhibition at 1 µM in data set [1] worked out at 12.5%.

As for `CCn1c(=O)[nH]c2ccc(OCCCOc3ccccc3)cc21`, the inhibition at 1 µM in data set [1] was 11.3%.

On to `Cn1c(=O)[nH]c2cc(OCc3cccc(Cl)c3)ccc21`, for which the values for the IC50 in data set [2] and in data set [3] were over 500 µM and 34.3 µM, respectively. Besides, the Ratio IC50 in the data set filed under Homo sapiens was over 14.6. The inhibition at 1 µM in data set [1] came to 23.4%.

Take `Cn1c(=O)[nH]c2ccc(OCCc3ccc(Cl)cc3)cc21`: the inhibition at 1 µM in data set [1] is 19.9%.

`CC(C)=C1C(=O)Nc2ccc(OCc3cccc(F)c3)cc21`: the INH result in data set [1] is recorded as “Not Active”.

Turning to `Cn1c(=O)[nH]c2cc(OCc3ccccc3)ccc21`, the INH result in data set [1] is reported as “Not Active”.

For `CCn1c(=O)[nH]c2ccc(OCCOc3ccc(Cl)cc3)cc21`, the inhibition at 1 µM in data set [1] stood at 7.24%.

Regarding `COc1ccc(OCCOc2ccc3c(c2)C(=C(C)C)C(=O)N3)cc1`, in data set [1], the INH entry is listed as “Not Active”.

Regarding `CCn1c(=O)[nH]c2ccc(OCCOc3ccc(C(C)C)cc3)cc21`, the IC50 in data set [2] was over 500 µM; in data set [3], 278 µM. The Ratio IC50 in the data set listed under Homo sapiens is over 1.8. Further, the inhibition at 1 µM in data set [1] is 19%.

As for `Cc1ccc(COc2ccc3c(c2)C(C)C(=O)N3)cc1` (racemic), the INH entry in data set [1] is “Not Active”.

For the compound `Cn1c(=O)[nH]c2ccc(OCCCc3ccccc3)cc21`, the values for the IC50 in data set [2] and in data set [3] were over 500 µM and 59.6 µM, respectively. Moreover, the Ratio IC50 in the data set filed under Homo sapiens was over 8.39. For the same compound, the inhibition at 1 µM in data set [1] came to 14%.

Turning to `CCn1c(=O)[nH]c2ccc(OCCOc3cccc(F)c3)cc21`, the results for the concentration for half-maximal inhibition (IC50) in data set [2] and in data set [3] were over 500 µM and 190 µM, respectively. Besides, the Ratio IC50 in the data set listed under Homo sapiens was over 2.62. In data set [1], the inhibition at 1 µM came out at 30.3%.

Regarding `CC1(C)C(=O)Nc2ccc(OCCOc3ccccc3)cc21`, the INH result in data set [1] was “Not Active”.

Turning to `O=C1Nc2ccc(OCCc3ccc(F)cc3)cc2C1=O`, the IC50 was over 500 µM in data set [2] and 0.102 µM in data set [3]. Further, the Ratio IC50 in the data set listed under Homo sapiens was over 4900. The inhibition at 1 µM in data set [1] amounted to 68.7%.

With `Cn1c(=O)[nH]c2cc(OCCCc3ccccc3)ccc21`, the INH result in data set [1] is on record as “Not Active”.

Turning to `O=C1Cc2cc(OCCc3ccc(F)cc3)ccc2N1`, the figures for the IC50 in data set [2] and in data set [3] were over 500 µM and 190 µM, respectively. In the data set listed under Homo sapiens, the Ratio IC50 is over 2.63. For the same compound, the inhibition at 1 µM in data set [1] came to 18.1%.

Consider `CC(C)C1C(=O)Nc2ccc(OCc3cccc(F)c3)cc21` (configuration not stated), for which the IC50 in data set [2] is over 500 µM; in data set [3], 397 µM. In the data set filed under Homo sapiens, the Ratio IC50 was over 1.62. Besides, the inhibition at 1 µM in data set [1] worked out at 12.7%.

With `Cn1c(=O)[nH]c2ccc(OCc3ccccc3)cc21`, the INH entry in data set [1] is “Not Active”.

On to `CCn1c(=O)[nH]c2ccc(OCc3ccc(C(F)(F)F)cc3)cc21`, for which the figures for the half-inhibitory concentration (IC50) in data set [2] and in data set [3] were over 500 µM and 184 µM, respectively. In addition, the Ratio IC50 in the data set filed under Homo sapiens is over 2.71. In addition, in data set [1], the inhibition at 1 µM turned out to be 22.8%.
